Experimental data as given in patent US7169787B2, “7-azaindoles, use thereof as phosphodiesterase 4 inhibitors and method for producing the same” (Elbion AG, priority 2000, dated 2007).

What was measured:
[1] = test system: actively sensitized Brown Norway Rats; assay: Inhibition of the late phase eosinophilia 48 hours after inhalative ovalbumin challenge; type: in vivo, rat; conditions: 2 h before allergen challenge, BAL 48 h after challenge
Description: The inhibition of pulmonary eosinophilia infiltration by the inventive substances is tested on male Brown Norway Rats (200–250 g), which had been actively sensitized against ovalbumin (OVA). The rats were sensitized by subcutaneous injections of a suspension of 10 μg OVA together with 20 mg of aluminum hydroxide as adjuvant in 0.5 mL of physiological salt solution per animal on days 1, 14 and 21. In addition, the animals at the same time received Bordetella pertussis vaccine dilution injected 0.25 mL i.p. per animal. On the 28th day of the experiment, the animals are placed individually in open 1 L Plexiglas boxes, which are connected to a head-nose exposure device. The animals are exposed to an aerosol of 1.0% ovalbumin suspension (allergen challenge). The ovalbumin aerosol is produced by a nebulizer (Bird Micronebulizer, Palm Springs Calif., USA), which is operated with compressed air (0.2 MPa). The exposure time is one hour, normal controls being nebulized also for one hour with an aerosol of 0.9% salt solution.
Forty-eight hours after the allergen challenge, there is a massive migration of eosinophilic granulocytes into the lungs of the animals. At this time, the animals are anesthetized with an excess of ethyl urethane (1.5 g/kg of body weight i.p.) and a bronchoalveolar lavage (BAL) with 3×4 mL of Hank's balance solution is carried out. The total cell count and the number of eosinophilic granulocytes of the pooled BAL liquid are subsequently determined with an automatic cell differentiation instrument (Bayer Diagnostics Technicon HIE). For each animal, the eosinophiles (EOS) in the BAL are calculated in millions/animal: EOS/μl×BAL recovery (mL)=EOS/animal.
For each test, 2 control groups were run (nebulization with physiological salt solution and nebulization with OVA solution).
The percentage inhibition of the eosinophilia of the experimental group, treated with substance, was calculated according to the following formula: {((OVAC−SC)−(OVAD−SC))/(OVAC−SC)}×100%=% inhibition (SC=vehicle-treated control group challenged with 0.9% salt solution; OVAC=vehicle-treated control group challenged with 1% ovalbumin suspension; OVAD=substance-treated experimental group challenged with 1% ovalbumin suspension)
The test substances are applied i.p. or orally as a suspension in 10% polyethylene glycol 300 and 0.5% 5-hydroxyethylcellulose for two hours before the allergen challenge. The control groups are treated with the vehicle in accordance with the application form of the test substance.

Lewis Rats = assay: Inhibition of the lipopolysaccharide (LPS)-induced lung neutrophilia; type: in vivo, rat; conditions: 1 mg/kg p.o., 2 h before LPS provocation; BAL 6 h after provocation
Description: The inhibition of pulmonary neutrophil infiltration by the inventive substances is tested on male Lewis Rats (250–350 g). On the day of the experiments, the animals are placed individually in open 1 L Plexiglas boxes, which are connected to a head-nose exposure device. The animals are exposed to an aerosol of a lipopolysaccharide suspension (100 μg LPS/mL of 0.1% hydroxylamine solution) in PBS (LPS provocation). The LPS/hydroxylamine aerosol is nebulized by a nebulizer (Bird Micronebulizer, Palm Springs Calif., USA), which is operated with compressed air (0.2 MPa). The exposure time is 40 minutes, normal controls being nebulized also for 40 minutes with an aerosol of 0.1% hydroxylamine solution in PBS.
Six hours after the LPS provocation, there is a maximum, massive migration of neutrophil granulocytes into the lungs of the animals. At this time, the animals are anesthetized with an excess of ethyl urethane (1.5 g/kg of body weight i.p.) and a bronchoalveolar lavage (BAL) with 3×4 mL of Hank's balance solution is carried out. The total cell count and the number of neutrophil granulocytes of the pooled BAL liquid are subsequently determined with an automatic cell differentiation instrument (Bayer Diagnostics Technicon HIE). For each animal, the neutrophiles (NEUTRO) in the BAL are calculated in millions/animal: NEUTRO/μl×BAL recovery (mL)=NEUTRO/animal.
For each test, 2 control groups were also run (nebulization with 0.1% hydroxylamine solution in PBS and nebulization with 100 μg LPS/mL of 0.1% hydroxylamine solution in PBS).
The percentage inhibition of the neutrophilia of the experimental group, treated with substance, was calculated according to the following formula: {((LPSC−SC)−(LPSD−SC))/(LPSC−SC)}×100%=% inhibition SC=vehicle-treated control group challenged with 0.1% hydroxylamine solution; LPSC=vehicle-treated control group challenged with LPS (100 μg/mL 0.1% hydroxylamine solution); LPSD=substance-treated experimental group challenged with LPS (100 μg/mL 0.1% hydroxylamine solution) […]

Row | melting point [°C] | SMILES | Inhibition of Eosinophilia ([1]; 10 mg/kg i.p.) [%] | Inhibition of Eosinophilia ([1]; 10 mg/kg p.o.) [%] | Inhibition of neutrophilia (table titled Inhibition of Eosinophilia) (Lewis Rats) [%]
1 | – | O=C(Nc1c(Cl)cncc1Cl)C(=O)c1cn(Cc2ccc(F)cc2)c2ncccc12 [Example 14] | 62 | 59 | 80
2 | 152 to 154 | CC(C)Cn1cc(C(=O)C(=O)Nc2c(Cl)cncc2Cl)c2cccnc21 [Example 27] | 50 | 70 | 52
